From PMC9230671, “Fluorochrome Selection for Imaging Intraoperative Ovarian Cancer Probes” (Pharmaceuticals, 2022) come the findings set out here.

SMILES strings stand for the structures. Marks after values point to notes of the source that are not given here.

One series addresses T1, COX-2 (Homo sapiens, UniProt P35354).
T1 construct: purchased Cayman Chemicals (bought through Sigma-Aldrich) 560131
T1 sequence (P35354 18-604): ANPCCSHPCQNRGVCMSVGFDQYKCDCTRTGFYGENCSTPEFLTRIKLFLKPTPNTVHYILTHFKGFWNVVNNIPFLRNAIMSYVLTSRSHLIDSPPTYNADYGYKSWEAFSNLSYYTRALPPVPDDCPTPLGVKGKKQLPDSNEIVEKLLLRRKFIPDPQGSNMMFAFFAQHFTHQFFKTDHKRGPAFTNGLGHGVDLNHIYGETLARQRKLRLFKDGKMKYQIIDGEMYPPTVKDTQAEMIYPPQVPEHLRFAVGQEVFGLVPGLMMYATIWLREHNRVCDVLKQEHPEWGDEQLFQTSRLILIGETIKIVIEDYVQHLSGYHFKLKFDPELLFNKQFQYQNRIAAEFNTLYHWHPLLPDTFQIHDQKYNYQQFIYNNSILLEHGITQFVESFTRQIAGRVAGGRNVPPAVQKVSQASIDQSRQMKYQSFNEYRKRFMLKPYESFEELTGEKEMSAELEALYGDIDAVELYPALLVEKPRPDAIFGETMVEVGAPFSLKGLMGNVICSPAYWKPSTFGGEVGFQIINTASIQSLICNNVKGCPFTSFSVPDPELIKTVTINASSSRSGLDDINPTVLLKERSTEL
Briefly: COX-2 inhibition, COX (ovine/human) inhibitor screening assay kit. Conditions: for COX-2 inhibitory activity (in words): up to 50 µM final concentration. It is filed as biochemical. On the procedure: Cell culture reagents were purchased from Euroclone (Milan, Italy). COX (ovine/human) inhibitor screening assay kit (Catalog No. 560131, Cayman Chemicals, Ann Arbor, MI, USA) was purchased from Sigma-Aldrich, Burlington, MA, USA. […] The other reagents were purchased from Sigma-Aldrich, Burlington, MA, USA.
The COX-1/2 inhibition screening experiments were carried out according to the manufacturer’s instructions. The plate was incubated for 60 min at r.t. under shaking and read with the Tecan Infinite 200 Microplate Reader at λ = 405 nm.
The graph between percent inhibition of the enzyme and corresponding concentration of the compound provided IC50 values for the probe compounds.

Series [1] is described as follows: Fluorescence property measurements (absorption/emission spectra). It is filed as physicochemical. More on the design: Stokes Shift: unit not given here. On the procedure:
The λabs and λem, of the target compounds were measured in aqueous solution (phosphate-buffered saline solution, PBS) at the concentration of 10^−5 M (Table 1).
Fluorescence spectra of all target compounds were determined in PBS and EtOH solutions (Table 1) with a Tecan Infinite 200 Microplate Reader. In all experiments, the excitation and the emission bandpass were set at λ = 5 nm. The emission spectra were obtained from λ = 280 to 850 nm, with excitation set at the appropriate excitation wavelength. Absorption spectra were recorded with a Shimadzu UV-1800 spectrophotometer.

The next series concerns OVCAR-3 xenograft tumors. As to the kind of experiment: NIR fluorescence imaging / biodistribution in OVCAR-3 s.c. xenograft models. It is filed as in vivo, NSG mice. Conditions: for tumor-to-background ratio (TBR): OVCAR-3 s.c. NSG mice, 100 µL of 500 µM i.v., after 24 h; for clearance pattern (organ): ex vivo NIR FLI 6 h after 500 µM i.v., OVCAR-3 mice. On the procedure:
To assess the capacity of both conjugates to visualize ovarian xenograft tumors “in vivo” and evaluate accumulation and clearance behavior of the conjugates, kinetic imaging was performed at six different time-points. Subcutaneously engrafted OVCAR-3 NSG mice were injected with 100 µL of 500 µM RR11 or 23 (MSA14) intravenously into the tail vein (Figure 3). […] Tumor-specific fluorescence was obtained 4, 6, and 24 h after RR11 injection, with a mean tumor-to-background ratio (TBR) of 1.74 after 24 h. In OVCAR-3 bearing NSG mice (n = 3), injected with 23 (MSA14), high liver signals (ventral view, #) were obtained at all time points with high compound accumulation in the tumors at 24 h (*, Figure 3B). The best TBR of 1.44 was achieved after 24 h. Residual background fluorescence was predominantly observed in the spine and limbs as well as in the excretion organs.
Following the biodistribution over time “in vivo”, we assessed the accumulation of the compounds “ex vivo” at 6 h. In Figure 4A, RR11-induced tumor-specific signal, along with high fluorescence in kidneys, gallbladder, stomach, and lungs, can be observed. […] The higher gastrointestinal fluorescence signal in RR11-imaged mice can derive from auto-fluorescent alfalfa containing diet, which is acquired in the lower wavelength of RR11. The main differences between the accumulation and clearance behavior are marked with an arrow, indicating two different clearance patterns of the compounds through liver (23, MSA14) and kidney (RR11). Finally, the fluorescence of 23 (MSA14) was evaluated in a clinically compatible intraoperative setting using the FLARE® system to assess the suitability of the COX-1 targeted NIR compound for FIGS and its potential clinical translation (Figure 4B). The “in vivo” and “ex vivo” intraoperative images confirm the results from Figure 3B and Figure 4A. […] While the tumor fluorescence intensities were higher than those of kidneys, the fluorescence intensities in the gallbladder and lungs were the highest.
Female NOD-scid IL2rγ^null (NSG) mice, aged 6 to 25 weeks were maintained under defined floral conditions and no more than five mice were housed in individually ventilated (HEPA-filtered air) cages, kept on a 12 h dark/night schedule at a constant temperature of 21 °C and at 50% relative humidity at the University of Bergen’s animal facility. Observations of body weight and general condition including activity levels, appearance, and food intake were monitored twice weekly, and humane endpoints were defined with the use of score sheets. When indicated, animals were euthanized according to institutional guidelines. […]

Where [2] appears, read: ethanol (10^−4 M), two bands, listed as 23.

By IC50 is commonly meant the midpoint of a concentration-inhibition curve. For the molecule `CCN1/C(=C/C=C/C=C/C=C/C2=[N+](CCCCCC(=O)NCCCCNC(=O)Cc3onc(-c4ccc(OC)cc4)c3-c3ccc(OC)cc3)c3ccc4ccccc4c3C2(C)C)C(C)(C)c2c1ccc1ccccc21` [23 (MSA14), 3-(6-(4-(2-(3,4-Bis(4-methoxyphenyl)isoxazole-5-yl)acetamido)butyl)amino-6-oxohexyl)-2-[7-(1,3-dihydro-1,1-dimethyl-3-ethyl-2H-benz[e]indolin-2-yl-idene)-1,3,5-heptatrienyl]-1,1-dimethyl-3-(6-carboxilato-hexyl)-1H-benz[e]indolium chloride], on COX-2, the IC50 is more than 50000 nM and the “COX-2 inhibitory activity (in words)” value is recorded as “did not inhibit”. Also, the “COX-2 inhibitory activity (in words)” value at COX-2 (listed as 23) was “almost inactive”. Besides, in series [1] (setting [2]), the λabs is on record as 770 nm and the λem was found to be 822 nm. Moreover, in the series on OVCAR-3 xenograft tumors, the “tumor-to-background ratio (TBR)” value turned out to be 1.44 and the “clearance pattern (organ)” value is “liver”.
On COX-2, `COc1ccc(-c2noc(CC(=O)NCCCCNc3cc4[o+]c5cc(N(C)C)ccc5nc4c4ccccc34)c2-c2ccc(OC)cc2)cc1.[Cl-]` [RR11, N-[4-(9-dimethylimino-9H-benzo[a]phenoxazin-5-ylamino)butyl]-2-(3,4-bis(4-methoxyphenyl)isoxazol-5-yl)acetamide chloride, reference compound] showed an IC50 of 2400 nM. On COX-2 (at 50 µM compound final concentration), this molecule returned a COX-2 % inhib. of 64%. For the same molecule, in series [1] (ethanol (10^−5 M)), the “Stokes Shift” value amounted to 62, the λabs is listed as 610 ^b nm and the λem was 672 ^b nm. Also, in the series with OVCAR-3 xenograft tumors, the “tumor-to-background ratio (TBR)” value came to 1.74 and the “clearance pattern (organ)” value is on record as “kidney”.
